From ChEMBL document CHEMBL3885881, “DrugMatrix”

Organism: Rattus norvegicus
Assay: DrugMatrix - Regimen: Daily Repeat
Type: toxicity, organism-based, Sprague-Dawley
Parameters: regimen Daily Repeat, gender Male, age 6-8 weeks
Settings: in vivo, po, route oral GAVAGE, vehicle .5 % CMC; for ABSOLUTE BASOPHIL / ABSOLUTE EOSINOPHIL / ABSOLUTE LYMPHOCYTE / ABSOLUTE MONOCYTE / ABSOLUTE SEGMENTED NEUTROPHIL / BASOPHIL / EOSINOPHIL / ERYTHROCYTE COUNT / HEMATOCRIT / HEMOGLOBIN / LEUKOCYTE COUNT / LYMPHOCYTE / MEAN CORPUSCULAR HEMOGLOBIN / MEAN CORPUSCULAR HEMOGLOBIN CONCENTRATION / MEAN CORPUSCULAR VOLUME / MONOCYTE / NEUTROPHIL / NUCLEATED RED BLOOD CELLS / PLATELET COUNT: tissue Blood; for ALANINE AMINOTRANSFERASE / ALBUMIN / ALKALINE PHOSPHATASE / ASPARTATE AMINOTRANSFERASE / BLOOD UREA NITROGEN / CARBON DIOXIDE / CHLORIDE / CHOLESTEROL / CREATINE PHOSPHOKINASE / CREATININE / GLUCOSE / LACTATE DEHYDROGENASE / LIPASE / PHOSPHORUS / POTASSIUM / SODIUM / TOTAL BILIRUBIN / TOTAL PROTEIN / URIC ACID: tissue Plasma
[1] = 0 mg/kg, 72 h, dose level Control, time 3 day
[2] = 0 mg/kg, 120 h, dose level Control, time 5 day
[3] = 30 mg/kg, 72 h, dose level Low, time 3 day
[4] = 30 mg/kg, 120 h, dose level Low, time 5 day

Compound: COc1cc(OC)c(C(=O)CCCN2CCCC2)c(OC)c1 [BUFLOMEDIL]
- ABSOLUTE BASOPHIL [1]: 0 CELLS/uL
- ABSOLUTE EOSINOPHIL [1]: 0 CELLS/uL
- ABSOLUTE LYMPHOCYTE [1]: 10913.67 CELLS/uL
- ABSOLUTE MONOCYTE [1]: 85.33 CELLS/uL
- ABSOLUTE SEGMENTED NEUTROPHIL [1]: 1401 CELLS/uL
- BASOPHIL [1]: 0%
- EOSINOPHIL [1]: 0%
- ERYTHROCYTE COUNT [1]: 5.57 x10E6/uL
- HEMATOCRIT [1]: 35.58%
- HEMOGLOBIN [1]: 13.8 G/DL
- LEUKOCYTE COUNT [1]: 12.4 x10E3/uL
- LYMPHOCYTE [1]: 88%
- MEAN CORPUSCULAR HEMOGLOBIN [1]: 24.78 pg
- MEAN CORPUSCULAR HEMOGLOBIN CONCENTRATION [1]: 38.82 G/DL
- MEAN CORPUSCULAR VOLUME [1]: 63.88 fL
- MONOCYTE [1]: 0.67%
- NEUTROPHIL [1]: 11.33%
- NUCLEATED RED BLOOD CELLS [1]: 0 /100WBC
- PLATELET COUNT [1]: 1162.33 x10E3/uL
- ALANINE AMINOTRANSFERASE [1]: 53 u/L
- ALBUMIN [1]: 4.17 G/DL
- ALKALINE PHOSPHATASE [1]: 374.5 u/L
- ASPARTATE AMINOTRANSFERASE [1]: 89.5 u/L
- BLOOD UREA NITROGEN [1]: 16.33 mg/dL
- CARBON DIOXIDE [1]: 29.17 mmol/L
- CHLORIDE [1]: 97.67 MEQ/L
- CHOLESTEROL [1]: 77 mg/dL
- CREATINE PHOSPHOKINASE [1]: 464.83 u/L
- CREATININE [1]: 0.14 mg/dL
- GLUCOSE [1]: 164 mg/dL
- LACTATE DEHYDROGENASE [1]: 155.5 u/L
- LIPASE [1]: 9.17 u/L
- PHOSPHORUS [1]: 12.4 mg/dL
- POTASSIUM [1]: 6.91 MEQ/L
- SODIUM [1]: 141.47 MEQ/L
- TOTAL BILIRUBIN [1]: 0.2 mg/dL
- TOTAL PROTEIN [1]: 5.95 G/DL
- URIC ACID [1]: 1.72 mg/dL
- ABSOLUTE BASOPHIL [2]: 0 CELLS/uL
- ABSOLUTE EOSINOPHIL [2]: 20.5 CELLS/uL
- ABSOLUTE LYMPHOCYTE [2]: 13871.67 CELLS/uL
- ABSOLUTE MONOCYTE [2]: 60.5 CELLS/uL
- ABSOLUTE SEGMENTED NEUTROPHIL [2]: 980.67 CELLS/uL
- BASOPHIL [2]: 0%
- EOSINOPHIL [2]: 0.17%
- ERYTHROCYTE COUNT [2]: 5.65 x10E6/uL
- HEMATOCRIT [2]: 35.63%
- HEMOGLOBIN [2]: 14.08 G/DL
- LEUKOCYTE COUNT [2]: 14.93 x10E3/uL
- LYMPHOCYTE [2]: 92.83%
- MEAN CORPUSCULAR HEMOGLOBIN [2]: 24.97 pg
- MEAN CORPUSCULAR HEMOGLOBIN CONCENTRATION [2]: 39.55 G/DL
- MEAN CORPUSCULAR VOLUME [2]: 63.13 fL
- MONOCYTE [2]: 0.33%
- NEUTROPHIL [2]: 6.67%
- NUCLEATED RED BLOOD CELLS [2]: 0 /100WBC
- PLATELET COUNT [2]: 1248.17 x10E3/uL
- ALANINE AMINOTRANSFERASE [2]: 45.17 u/L
- ALBUMIN [2]: 4.27 G/DL
- ALKALINE PHOSPHATASE [2]: 405.67 u/L
- ASPARTATE AMINOTRANSFERASE [2]: 74.17 u/L
- BLOOD UREA NITROGEN [2]: 15.5 mg/dL
- CARBON DIOXIDE [2]: 30.17 mmol/L
- CHLORIDE [2]: 100.67 MEQ/L
- CHOLESTEROL [2]: 57 mg/dL
- CREATINE PHOSPHOKINASE [2]: 239.5 u/L
- CREATININE [2]: 0.17 mg/dL
- GLUCOSE [2]: 165.67 mg/dL
- LACTATE DEHYDROGENASE [2]: 90.5 u/L
- LIPASE [2]: 8.83 u/L
- PHOSPHORUS [2]: 12.32 mg/dL
- POTASSIUM [2]: 7.03 MEQ/L
- SODIUM [2]: 142.65 MEQ/L
- TOTAL BILIRUBIN [2]: 0.18 mg/dL
- TOTAL PROTEIN [2]: 6.03 G/DL
- URIC ACID [2]: 1.98 mg/dL
- ABSOLUTE BASOPHIL [3]: 0 CELLS/uL
- ABSOLUTE EOSINOPHIL [3]: 0 CELLS/uL
- ABSOLUTE LYMPHOCYTE [3]: 12859.33 CELLS/uL
- ABSOLUTE MONOCYTE [3]: 198 CELLS/uL
- ABSOLUTE SEGMENTED NEUTROPHIL [3]: 1176 CELLS/uL
- BASOPHIL [3]: 0%
- EOSINOPHIL [3]: 0%
- ERYTHROCYTE COUNT [3]: 5.25 x10E6/uL
- HEMATOCRIT [3]: 33.97%
- HEMOGLOBIN [3]: 14.13 G/DL
- LEUKOCYTE COUNT [3]: 14.23 x10E3/uL
- LYMPHOCYTE [3]: 90%
- MEAN CORPUSCULAR HEMOGLOBIN [3]: 25.77 pg
- MEAN CORPUSCULAR HEMOGLOBIN CONCENTRATION [3]: 39.67 G/DL
- MEAN CORPUSCULAR VOLUME [3]: 64.9 fL
- MONOCYTE [3]: 1.33%
- NEUTROPHIL [3]: 8.67%
- NUCLEATED RED BLOOD CELLS [3]: 0 /100WBC
- PLATELET COUNT [3]: 1306 x10E3/uL
- ALANINE AMINOTRANSFERASE [3]: 53 u/L
- ALBUMIN [3]: 4.17 G/DL
- ALKALINE PHOSPHATASE [3]: 441 u/L
- ASPARTATE AMINOTRANSFERASE [3]: 83.33 u/L
- BLOOD UREA NITROGEN [3]: 16.67 mg/dL
- CARBON DIOXIDE [3]: 27.67 mmol/L
- CHLORIDE [3]: 98 MEQ/L
- CHOLESTEROL [3]: 75.33 mg/dL
- CREATINE PHOSPHOKINASE [3]: 360 u/L
- CREATININE [3]: 0.1 mg/dL
- GLUCOSE [3]: 146 mg/dL
- LACTATE DEHYDROGENASE [3]: 180.33 u/L
- LIPASE [3]: 9.33 u/L
- PHOSPHORUS [3]: 13.93 mg/dL
- POTASSIUM [3]: 6.77 MEQ/L
- SODIUM [3]: 143.3 MEQ/L
- TOTAL BILIRUBIN [3]: 0.23 mg/dL
- TOTAL PROTEIN [3]: 5.9 G/DL
- URIC ACID [3]: 1.47 mg/dL
- ABSOLUTE BASOPHIL [4]: 0 CELLS/uL
- ABSOLUTE EOSINOPHIL [4]: 0 CELLS/uL
- ABSOLUTE LYMPHOCYTE [4]: 10085.67 CELLS/uL
- ABSOLUTE MONOCYTE [4]: 133.67 CELLS/uL
- ABSOLUTE SEGMENTED NEUTROPHIL [4]: 980.67 CELLS/uL
- BASOPHIL [4]: 0%
- EOSINOPHIL [4]: 0%
- ERYTHROCYTE COUNT [4]: 5.03 x10E6/uL
- HEMATOCRIT [4]: 33.2%
- HEMOGLOBIN [4]: 13.3 G/DL
- LEUKOCYTE COUNT [4]: 11.2 x10E3/uL
- LYMPHOCYTE [4]: 91.33%
- MEAN CORPUSCULAR HEMOGLOBIN [4]: 26.47 pg
- MEAN CORPUSCULAR HEMOGLOBIN CONCENTRATION [4]: 40.07 G/DL
- MEAN CORPUSCULAR VOLUME [4]: 66.07 fL
- MONOCYTE [4]: 1%
- NEUTROPHIL [4]: 7.67%
- NUCLEATED RED BLOOD CELLS [4]: 0 /100WBC
- PLATELET COUNT [4]: 833 x10E3/uL
- ALANINE AMINOTRANSFERASE [4]: 55.67 u/L
- ALBUMIN [4]: 4.23 G/DL
- ALKALINE PHOSPHATASE [4]: 308.33 u/L
- ASPARTATE AMINOTRANSFERASE [4]: 81 u/L
- BLOOD UREA NITROGEN [4]: 17.33 mg/dL
- CARBON DIOXIDE [4]: 26.33 mmol/L
- CHLORIDE [4]: 102.33 MEQ/L
- CHOLESTEROL [4]: 64 mg/dL
- CREATINE PHOSPHOKINASE [4]: 354.67 u/L
- CREATININE [4]: 0.13 mg/dL
- GLUCOSE [4]: 152.33 mg/dL
- LACTATE DEHYDROGENASE [4]: 110.67 u/L
- LIPASE [4]: 12 u/L
- PHOSPHORUS [4]: 12.5 mg/dL
- POTASSIUM [4]: 6.61 MEQ/L
- SODIUM [4]: 143.1 MEQ/L
- TOTAL BILIRUBIN [4]: 0.2 mg/dL
- TOTAL PROTEIN [4]: 5.97 G/DL
- URIC ACID [4]: 2.27 mg/dL
